# Key:
# Format in all cases: biochemical
# mTORC = target: T1, mTORC (Homo sapiens, UniProt P42345); assay: In-vitro mTORC inhibition assay
# T1 construct: purchased Invitrogen
# Protocol: The compounds described herein can be tested against recombinant mTOR (Invitrogen) in an assay containing 50 mM HEPES, pH 7.5, 1 mM EGTA, 10 mM MgCl2, 2.5 mM, 0.01% Tween, 10 μM ATP (2.5 μCi of […]), and 3 μg/mL BSA. Rat recombinant PHAS-1/4EBP1 (Calbiochem; 2 mg/mL) is used as a substrate. Reactions are terminated by spotting onto nitrocellulose, which is washed with 1M NaCl/1% phosphoric acid (approximately 6 times, 5-10 minutes each). Sheets are dried and the transferred radioactivity quantitated by phosphorimaging.
# Other kits or systems for assaying mTOR activity are commercially available. For instance, one can use Invitrogen's LanthaScreen™ Kinase assay to test the inhibitors of mTOR disclosed herein. This assay is a time resolved FRET platform that measures the phosphorylation of GFP labeled 4EBP1 by mTOR kinase. The kinase reaction is performed in a white 384 well microtitre plate. The total reaction volume is 20 ul per well and the reaction buffer composition is 50 mM HEPES pH7.5, 0.01% Polysorbate 20, 1 mM EGTA, 10 mM MnCl2, and 2 mM DTT. In the first step, each well receives 2 ul of test compound in 20% dimethylsulphoxide resulting in a 2% DMSO final concentration. Next, 8 ul of mTOR diluted in reaction buffer is added per well for a 60 ng/ml final concentration. To start the reaction, 10 ul of an ATP/GFP-4EBP1 mixture (diluted in reaction buffer) is added per well for a final concentration of 10 uM ATP and 0.5 uM GFP-4EBP1. The plate is sealed and incubated for 1 hour at room temperature. The reaction is stopped by adding 10 ul per well of a Tb-anti-pT46 4EBP1 antibody/EDTA mixture (diluted in TR-FRET buffer) for a final concentration of 1.3 nM antibody and 6.7 mM EDTA. The plate is sealed, incubated for 1 hour at room temperature, and then read on a plate reader set up for LanthaScreen™ TR-FRET. Data is analyzed and IC50s are generated using GraphPad Prism 5.
# PI3K α = target: T2, PI3K α (Homo sapiens, UniProt P42336); assay: In-vitro PI3K α inhibition assay
# T2 construct: purchased Upstate
# Protocol: (§1) Class I PI3-Ks can be either purchased (p110α/p85α, p110β/p85α, p110β/p85α from Upstate, and p110γ from Sigma) or expressed as previously described (Knight et al., 2004). IC50 values are measured using either a standard TLC assay for lipid kinase activity (described below) or a high-throughput membrane capture assay. Kinase reactions are performed by preparing a reaction mixture containing kinase, inhibitor (2% DMSO final concentration), buffer (25 mM HEPES, pH 7.4, 10 mM MgCl2), and freshly sonicated phosphatidylinositol ([…]). Reactions are initiated by the addition of ATP containing 10 μCi of γ-32P-ATP to a final concentration 10 or 100 μM and allowed to proceed for 5 minutes at room temperature. For TLC analysis, reactions are then terminated by the addition of 105 μl 1N HCl followed by 160 μl CHCl3:MeOH (1:1). The biphasic mixture is vortexed, briefly centrifuged, and the organic phase is transferred to a new tube using a gel loading pipette tip precoated with CHCl3. This extract is spotted on TLC plates and developed for 3-4 hours in a 65:35 solution of n-propanol:1M acetic acid. The TLC plates are then dried, exposed to a phosphorimager screen (Storm, Amersham), and quantitated. For each compound, kinase activity is measured at 10-12 inhibitor concentrations representing two-fold dilutions from the highest concentration tested (typically, 200 μM).
# Other commercial kits or systems for assaying PI3-K activities are available. The commercially available kits or systems can be used to screen for inhibitors and/or agonists of PI3-Ks including but not limited to PI3-Kinase α, β, δ, and γ. An exemplary system is PI3-Kinase (human) HTRF™ Assay from Upstate. […] Briefly, the assay is a time resolved FRET assay that indirectly measures PI3 product formed by the activity of a PI3-K. The kinase reaction is performed in a microtitre plate (e.g., a 384 well microtitre plate). […] The plate is sealed, incubated for 1 hour at room temperature, and then read on an appropriate plate reader. Data is analyzed and IC50s are generated using GraphPad Prism 5.
# PI3K δ = target: T3, PI3K δ (Homo sapiens, UniProt O00329); assay: In-vitro PI3K δ inhibition assay
# T3 construct: purchased Upstate
# Protocol: as §1, with “The biphasic mixture is vortexed, briefly centrifuged, and the organic phase is transferred to a new tube using a gel loading pipette tip precoated with CHCl3. This extract is spotted on TLC plates and developed for 3-4 hours in a 65:35 solution of n-propanol:1M acetic acid.” left out
# (§2) Other commercial kits or systems for assaying PI3-K activities are available. […] The plate is sealed, incubated for 1 hour at room temperature, and then read on an appropriate plate reader. Data is analyzed and IC50s are generated using GraphPad Prism 5.
# PI3K β = target: T4, PI3K β (Homo sapiens, UniProt P42338); assay: In-vitro PI3K β inhibition assay
# T4 construct: purchased Upstate
# Protocol: as §1, with “The biphasic mixture is vortexed, briefly centrifuged, and the organic phase is transferred to a new tube using a gel loading pipette tip precoated with CHCl3. This extract is spotted on TLC plates and developed for 3-4 hours in a 65:35 solution of n-propanol:1M acetic acid.” left out
# as §2
# T1 sequence (P42345 1360-2549 limits assumed): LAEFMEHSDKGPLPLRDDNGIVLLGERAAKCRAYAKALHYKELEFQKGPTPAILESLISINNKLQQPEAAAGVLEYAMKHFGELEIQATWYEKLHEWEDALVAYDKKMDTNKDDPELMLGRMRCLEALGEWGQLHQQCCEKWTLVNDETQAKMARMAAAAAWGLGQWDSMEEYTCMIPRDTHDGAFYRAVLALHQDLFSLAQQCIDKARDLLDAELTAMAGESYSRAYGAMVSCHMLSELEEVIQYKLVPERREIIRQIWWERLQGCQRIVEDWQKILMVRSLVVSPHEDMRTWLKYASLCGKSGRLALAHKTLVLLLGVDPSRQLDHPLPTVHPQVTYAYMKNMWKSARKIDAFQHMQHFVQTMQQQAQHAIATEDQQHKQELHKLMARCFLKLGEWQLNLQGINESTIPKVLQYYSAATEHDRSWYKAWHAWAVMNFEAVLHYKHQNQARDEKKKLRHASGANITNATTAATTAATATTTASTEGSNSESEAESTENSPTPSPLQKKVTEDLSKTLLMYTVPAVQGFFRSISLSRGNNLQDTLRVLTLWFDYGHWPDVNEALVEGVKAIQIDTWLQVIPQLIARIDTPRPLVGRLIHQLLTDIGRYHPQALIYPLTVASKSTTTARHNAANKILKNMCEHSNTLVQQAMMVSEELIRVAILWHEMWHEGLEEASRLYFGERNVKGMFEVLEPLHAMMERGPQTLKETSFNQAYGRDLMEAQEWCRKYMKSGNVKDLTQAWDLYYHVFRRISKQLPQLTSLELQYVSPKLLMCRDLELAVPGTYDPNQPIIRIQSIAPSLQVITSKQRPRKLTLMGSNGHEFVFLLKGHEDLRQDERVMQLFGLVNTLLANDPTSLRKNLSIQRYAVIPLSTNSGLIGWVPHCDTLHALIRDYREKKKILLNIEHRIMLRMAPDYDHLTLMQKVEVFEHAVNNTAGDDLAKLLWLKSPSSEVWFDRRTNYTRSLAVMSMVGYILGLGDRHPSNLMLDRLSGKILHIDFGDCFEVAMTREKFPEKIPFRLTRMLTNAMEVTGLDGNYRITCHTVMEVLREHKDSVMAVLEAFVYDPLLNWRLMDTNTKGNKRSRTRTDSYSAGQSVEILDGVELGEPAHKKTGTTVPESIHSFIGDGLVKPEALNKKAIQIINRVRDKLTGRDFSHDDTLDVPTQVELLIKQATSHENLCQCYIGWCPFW
# T2 sequence (P42336 whole entry): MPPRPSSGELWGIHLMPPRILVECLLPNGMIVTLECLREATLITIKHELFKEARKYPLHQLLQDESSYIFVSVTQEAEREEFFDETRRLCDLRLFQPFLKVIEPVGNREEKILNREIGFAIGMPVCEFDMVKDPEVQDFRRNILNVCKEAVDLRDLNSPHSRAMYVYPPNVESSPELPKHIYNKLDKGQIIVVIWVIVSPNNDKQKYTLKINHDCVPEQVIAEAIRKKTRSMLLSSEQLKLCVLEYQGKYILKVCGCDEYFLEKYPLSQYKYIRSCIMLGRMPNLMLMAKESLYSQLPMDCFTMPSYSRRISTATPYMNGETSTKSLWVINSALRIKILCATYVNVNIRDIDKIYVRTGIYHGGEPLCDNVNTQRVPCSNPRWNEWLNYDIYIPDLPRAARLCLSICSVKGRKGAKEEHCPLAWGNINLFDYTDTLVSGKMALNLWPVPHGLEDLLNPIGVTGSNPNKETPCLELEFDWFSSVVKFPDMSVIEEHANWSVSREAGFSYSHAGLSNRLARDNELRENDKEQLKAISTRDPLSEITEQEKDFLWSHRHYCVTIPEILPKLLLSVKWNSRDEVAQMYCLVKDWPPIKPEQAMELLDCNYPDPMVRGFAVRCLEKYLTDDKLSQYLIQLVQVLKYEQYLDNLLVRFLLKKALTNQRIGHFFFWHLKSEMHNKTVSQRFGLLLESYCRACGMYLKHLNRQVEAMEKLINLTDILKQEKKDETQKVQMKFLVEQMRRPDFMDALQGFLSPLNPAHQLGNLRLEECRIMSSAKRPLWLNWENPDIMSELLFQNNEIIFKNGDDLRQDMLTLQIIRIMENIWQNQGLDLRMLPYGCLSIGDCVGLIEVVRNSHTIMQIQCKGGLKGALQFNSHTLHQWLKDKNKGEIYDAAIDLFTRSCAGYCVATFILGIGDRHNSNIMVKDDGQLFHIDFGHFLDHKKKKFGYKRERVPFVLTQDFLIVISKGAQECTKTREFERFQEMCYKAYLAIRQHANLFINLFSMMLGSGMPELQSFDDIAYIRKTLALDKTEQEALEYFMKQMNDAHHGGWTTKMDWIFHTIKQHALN
# T2 sequence (P27986 whole entry partner): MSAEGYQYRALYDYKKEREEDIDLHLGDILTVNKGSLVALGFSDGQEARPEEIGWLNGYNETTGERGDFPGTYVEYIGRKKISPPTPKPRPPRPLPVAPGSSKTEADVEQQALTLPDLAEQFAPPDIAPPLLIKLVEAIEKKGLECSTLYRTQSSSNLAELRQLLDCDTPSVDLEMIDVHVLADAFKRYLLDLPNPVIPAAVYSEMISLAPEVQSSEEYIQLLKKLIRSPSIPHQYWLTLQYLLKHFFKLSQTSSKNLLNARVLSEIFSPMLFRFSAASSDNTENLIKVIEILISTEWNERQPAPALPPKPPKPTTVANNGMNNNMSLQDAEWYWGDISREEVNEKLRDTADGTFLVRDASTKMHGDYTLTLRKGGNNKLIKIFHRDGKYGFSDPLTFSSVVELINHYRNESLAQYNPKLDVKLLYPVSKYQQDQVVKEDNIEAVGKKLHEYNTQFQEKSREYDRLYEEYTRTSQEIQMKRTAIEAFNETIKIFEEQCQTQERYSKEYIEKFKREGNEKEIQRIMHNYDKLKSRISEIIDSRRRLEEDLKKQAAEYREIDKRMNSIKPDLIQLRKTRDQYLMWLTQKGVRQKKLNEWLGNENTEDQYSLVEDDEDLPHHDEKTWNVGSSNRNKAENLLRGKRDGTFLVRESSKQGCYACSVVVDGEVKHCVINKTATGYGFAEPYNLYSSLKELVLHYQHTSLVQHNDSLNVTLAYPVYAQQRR
# T4 sequence (P42338 whole entry): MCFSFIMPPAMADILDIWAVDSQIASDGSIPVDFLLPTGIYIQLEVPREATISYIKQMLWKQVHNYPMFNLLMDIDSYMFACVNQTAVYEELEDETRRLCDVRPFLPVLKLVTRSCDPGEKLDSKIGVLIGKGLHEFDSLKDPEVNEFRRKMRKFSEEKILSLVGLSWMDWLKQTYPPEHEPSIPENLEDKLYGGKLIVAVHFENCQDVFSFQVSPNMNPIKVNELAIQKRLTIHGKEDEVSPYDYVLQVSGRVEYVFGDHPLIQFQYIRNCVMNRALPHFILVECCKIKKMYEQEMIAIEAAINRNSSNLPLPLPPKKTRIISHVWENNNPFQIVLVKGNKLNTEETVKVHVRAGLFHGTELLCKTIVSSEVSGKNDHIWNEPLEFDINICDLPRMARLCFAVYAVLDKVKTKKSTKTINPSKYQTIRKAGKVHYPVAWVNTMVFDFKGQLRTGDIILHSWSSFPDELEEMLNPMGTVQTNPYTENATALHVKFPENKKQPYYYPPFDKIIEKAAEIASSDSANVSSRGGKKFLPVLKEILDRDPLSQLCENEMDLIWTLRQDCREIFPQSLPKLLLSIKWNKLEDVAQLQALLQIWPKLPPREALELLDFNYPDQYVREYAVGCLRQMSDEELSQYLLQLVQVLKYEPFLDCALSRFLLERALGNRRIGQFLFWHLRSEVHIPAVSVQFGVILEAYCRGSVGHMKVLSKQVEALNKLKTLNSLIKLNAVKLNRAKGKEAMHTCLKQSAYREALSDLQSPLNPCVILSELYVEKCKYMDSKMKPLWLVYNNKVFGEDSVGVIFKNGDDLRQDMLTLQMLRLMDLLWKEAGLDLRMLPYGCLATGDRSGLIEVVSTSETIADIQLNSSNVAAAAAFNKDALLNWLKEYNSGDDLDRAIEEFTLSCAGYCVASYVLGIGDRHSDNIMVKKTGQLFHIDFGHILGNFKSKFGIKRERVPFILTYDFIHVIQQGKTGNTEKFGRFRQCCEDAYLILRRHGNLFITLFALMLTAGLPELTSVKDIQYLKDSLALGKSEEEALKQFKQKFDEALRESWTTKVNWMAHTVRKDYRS
# T4 sequence (P27986 whole entry partner): as the sequence (P27986 whole entry partner) above
Structure (SMILES),IC50 (mTORC) [nM],IC50 (PI3K α) [nM],IC50 (PI3K δ) [nM],IC50 (PI3K β) [nM]
CC(C)n1nc(-c2cc3cc(O)ccc3[nH]2)c2c(N)nccc21 [Compound 1],≤ 1000,,,
CC(C)n1nc(-c2ccc3onc(N)c3c2)c2c(N)nccc21 [Compound 2],> 1000,> 1000,,
CC(C)n1nc(-c2cnc3[nH]ccc3c2)c2c(N)nccc21 [Compound 3],> 1000,> 1000,> 1000,> 1000
CC(C)n1nc(-c2ccc3oc(N)nc3c2)c2c(N)nccc21 [Compound 4],≤ 1000,> 1000,,> 1000

# Source: patent US8637542B2, “Kinase inhibitors and methods of use” (Intellikine, Inc., priority 2008, dated 2014)
